Test results as given in publication PMC12799524, “Putative new biomarkers for renal transporter-mediated drug-drug interactions: Characterization as substrates of organic cation transporter 2, multidrug and toxin extrusion protein 1, and other important drug transporters” (Drug Metabolism and Disposition, 2025).

Tests used:
[1] = target: T1, human OAT1 (Homo sapiens, UniProt Q4U2R8); test: Uptake assay in HEK-OAT1 vs HEK-VC cells; type: in vitro ADME
T1 construct: expressed in transfected cells; host or cells: HEK293 (HEK-OAT1), plasmid pOAT1.31 in pcDNA3.1/Hy(-)
T1 sequence (Q4U2R8 1-563): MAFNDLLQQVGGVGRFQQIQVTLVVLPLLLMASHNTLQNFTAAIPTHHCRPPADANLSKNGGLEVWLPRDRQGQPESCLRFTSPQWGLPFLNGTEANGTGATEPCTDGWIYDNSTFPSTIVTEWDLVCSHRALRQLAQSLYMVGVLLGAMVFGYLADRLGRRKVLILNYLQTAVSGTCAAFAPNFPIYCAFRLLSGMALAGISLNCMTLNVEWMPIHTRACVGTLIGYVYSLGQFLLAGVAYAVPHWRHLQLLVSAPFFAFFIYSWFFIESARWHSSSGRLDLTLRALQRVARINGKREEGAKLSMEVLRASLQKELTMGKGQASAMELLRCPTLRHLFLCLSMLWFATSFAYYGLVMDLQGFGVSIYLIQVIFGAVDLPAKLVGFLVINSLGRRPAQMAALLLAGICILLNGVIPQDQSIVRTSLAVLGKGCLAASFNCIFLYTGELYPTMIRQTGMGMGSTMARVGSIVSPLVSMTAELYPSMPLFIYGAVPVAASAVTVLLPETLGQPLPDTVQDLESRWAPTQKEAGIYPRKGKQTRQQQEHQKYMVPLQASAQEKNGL
Description: Transport experiments were performed 48 hours after seeding.

[2] = target: P-gp (Homo sapiens, UniProt P08183); test: Intracellular accumulation and basal to apical transport in Caco-2 cells with/without valspodar; settings: for In Vitro P-gp (substrate class): Caco-2 cells, valspodar
Description: (§1) The intracellular accumulation and transcellular, basal to apical transport experiments were performed as previously described in monolayers of polarized single-transfected (MDCK-OCT2, MDCK-MATE1) and double-transfected (MDCK-OCT2-MATE1) MDCK cells, MDCK control cells (MDCK-VC), or Caco-2 cells.[22] In brief, cell monolayers were grown in cell culture inserts on porous membranes. For MDCK-VC, MDCK-OCT2 and Caco-2, 5 × 10^5 cells were used per well; for MDCK-OCT2-MATE1, 6 × 10^5 cells were used, and for MDCK-MATE1, 8 × 10^5 cells were used per well. Cells were grown to confluence for 72 hours, induced with 10 mM sodium butyrate 48 hours after seeding for 24 hours (MDCK only), and subsequently used for transport experiments.
(§2) In general, after the cell culture medium was removed from both sides of the monolayers, cells were washed at 37 °C with transport buffer of the same composition as described in the previous section. Experiments were started by replacing the medium in the basal compartment with medium containing the putative biomarkers or [^3H]-labeled positive control substrates. The pH of the buffer on the basal side was 7.3 and 6.5 on the apical side for MDCK cells, whereas it was 7.3 on either side for Caco-2 cells. Cells were incubated at 37 °C and the buffer from the apical compartment was taken after 60 minutes for MDCK cells and after 240 minutes for Caco-2 cells. In case of Caco-2 cells, endogenous P-gp was inhibited by adding 2 μM of valspodar to the basal compartment. To measure the cellular accumulation of the test compounds, the remaining medium was removed at the end of the incubation period and the cell monolayers were rapidly rinsed 3 times with ice-cold 0.9% NaCl in water. Filters were detached from the chambers and placed into 500 μL of 80% MeOH containing the aforementioned recovery standards to lyse cells for subsequent LC-MS analysis or into 600 μL of 0.2% SDS (control experiments only). In the control experiments, the radioactivity of the collected apical medium and the solubilized cell monolayers and protein concentrations of the cell lysates were measured in the same way as described for the experiments with HEK cells.
(§3) The intracellular background of all 5 compounds in HEK cells at the beginning of the uptake experiments was investigated 48 hours after seeding without incubation with transport buffer (ie, 0 minutes). […] Then, cells were lysed with ice-cold 80% MeOH containing the aforementioned recovery standards. In addition, the impact of a 5-minute incubation period with transport buffer without added substance was investigated.

[3] = target: T2, MATE1 (Homo sapiens, UniProt Q96FL8); test: Intracellular accumulation and transcellular transport in MDCK-MATE1 monolayers; settings: for Intracellular accumulation in MDCK-MATE1 cells compared to MDCK-VC cells / Transcellular basal to apical transport in MDCK-MATE1 cells vs MDCK-VC cells: 10 μM basal, 60 minutes
T2 sequence (Q96FL8 1-570): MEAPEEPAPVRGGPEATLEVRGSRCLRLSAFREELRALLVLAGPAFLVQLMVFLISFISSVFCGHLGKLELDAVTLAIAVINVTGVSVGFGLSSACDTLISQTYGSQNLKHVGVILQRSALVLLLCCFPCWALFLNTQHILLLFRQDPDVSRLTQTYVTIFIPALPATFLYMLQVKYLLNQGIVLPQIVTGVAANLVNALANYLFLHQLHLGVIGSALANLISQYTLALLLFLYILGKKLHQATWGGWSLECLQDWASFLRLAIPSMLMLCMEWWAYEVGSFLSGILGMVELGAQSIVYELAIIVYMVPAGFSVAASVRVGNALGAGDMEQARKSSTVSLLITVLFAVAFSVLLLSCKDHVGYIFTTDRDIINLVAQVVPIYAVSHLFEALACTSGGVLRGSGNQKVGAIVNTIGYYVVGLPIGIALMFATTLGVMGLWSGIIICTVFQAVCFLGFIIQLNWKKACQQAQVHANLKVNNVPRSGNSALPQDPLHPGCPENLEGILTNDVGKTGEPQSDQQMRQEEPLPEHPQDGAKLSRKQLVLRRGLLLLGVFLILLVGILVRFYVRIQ
Description: as §1, §2, §3

[4] = tested on: human OCT2 and MATE1; test: Intracellular accumulation and transcellular transport in double-transfected MDCK-OCT2-MATE1 monolayers; type: in vitro ADME; settings: for Intracellular concentration in MDCK-OCT2-MATE1 cells vs MDCK-VC cells: 10 μM basal, 60 minutes
Description: as §1, §2, §3

[5] = target: T2, MATE1; test: Concentration-dependent transport in HEK-MATE1 cells (Km, Vmax); type: in vitro ADME; parameters: expressed in transfected cells; host or cells: HEK293 (HEK-MATE1); settings: HEK-MATE1 net uptake; for Vmax for MATE1-mediated uptake: 5 min; for Km at 5 min: human, HEK-MATE1 cells, read-out: Km for MATE1-mediated transport
Description: Data are presented in percentage of respective controls (which were set to 100%) or in pmol × mg protein^–1 × min^–1 for concentration-dependent transport as mean ± SEM. All results were normalized to the mean protein concentrations of the cell lysates in the respective control experiments.
Experiments with putative biomarkers in HEK-OCT2 or HEK-MATE1 cells were performed with 6 independent biological replicates, whereas all other experiments involving HEK, MDCK, or Caco-2 cells were performed with 4 independent biological replicates. Pairwise comparisons were analyzed for statistical significance with two-tailed unpaired Student’s t test and multiple comparisons by one-way ANOVA with subsequent Tukey-Kramer multiple comparison test by using GraphPad Prism 10.0.2 (GraphPad Software). A value of P < .05 was considered as statistically significant. Km and Vmax values were determined with Michaelis-Menten enzyme kinetics curve fit using GraphPad Prism 10.0.2.

[6] = tested on: OCT2; settings: read-out: Km value for OCT2; ref Ma et al 17; cited from earlier work
[7] = 10 μM substrate, 240 minutes, valspodar 2 μM
[8] = 60 minutes without added substance

P-gp, sequence (P08183 whole entry): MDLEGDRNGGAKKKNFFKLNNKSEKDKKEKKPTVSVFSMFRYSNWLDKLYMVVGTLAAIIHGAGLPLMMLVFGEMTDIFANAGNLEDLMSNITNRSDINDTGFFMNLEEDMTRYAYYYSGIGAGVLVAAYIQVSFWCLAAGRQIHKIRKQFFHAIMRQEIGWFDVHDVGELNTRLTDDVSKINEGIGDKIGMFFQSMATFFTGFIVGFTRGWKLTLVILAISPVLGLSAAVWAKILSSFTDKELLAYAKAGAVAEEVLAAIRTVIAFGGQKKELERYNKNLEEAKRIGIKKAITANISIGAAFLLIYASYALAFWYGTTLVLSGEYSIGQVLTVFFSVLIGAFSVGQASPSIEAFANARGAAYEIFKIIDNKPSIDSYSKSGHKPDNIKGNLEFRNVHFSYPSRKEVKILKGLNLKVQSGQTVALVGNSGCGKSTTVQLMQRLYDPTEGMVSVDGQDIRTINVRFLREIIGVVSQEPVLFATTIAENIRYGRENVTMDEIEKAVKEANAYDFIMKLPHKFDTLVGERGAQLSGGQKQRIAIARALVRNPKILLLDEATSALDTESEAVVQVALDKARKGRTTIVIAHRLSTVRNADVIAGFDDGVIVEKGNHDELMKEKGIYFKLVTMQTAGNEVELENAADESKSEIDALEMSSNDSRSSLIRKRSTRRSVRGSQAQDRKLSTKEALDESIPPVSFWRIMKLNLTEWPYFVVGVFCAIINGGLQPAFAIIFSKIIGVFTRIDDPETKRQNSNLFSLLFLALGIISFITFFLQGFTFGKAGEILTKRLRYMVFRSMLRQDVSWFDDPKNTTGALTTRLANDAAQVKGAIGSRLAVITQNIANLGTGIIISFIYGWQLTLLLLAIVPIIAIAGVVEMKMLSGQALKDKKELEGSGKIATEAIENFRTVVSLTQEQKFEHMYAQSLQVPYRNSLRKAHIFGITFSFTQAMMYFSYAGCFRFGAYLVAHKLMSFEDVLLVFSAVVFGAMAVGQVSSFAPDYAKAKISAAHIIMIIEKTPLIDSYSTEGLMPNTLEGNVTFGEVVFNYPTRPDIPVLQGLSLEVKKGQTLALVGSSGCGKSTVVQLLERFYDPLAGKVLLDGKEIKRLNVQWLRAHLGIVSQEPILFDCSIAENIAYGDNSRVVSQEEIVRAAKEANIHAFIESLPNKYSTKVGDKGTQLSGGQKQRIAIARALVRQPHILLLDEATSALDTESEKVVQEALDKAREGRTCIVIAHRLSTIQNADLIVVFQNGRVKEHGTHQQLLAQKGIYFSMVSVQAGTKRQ

In Vitro OAT1 (substrate class) [1]	Effect of valspodar on basal to apical translocation in Caco-2 cells [2, 7]	In Vitro P-gp (substrate class) [2]	Intracellular accumulation in MDCK-MATE1 cells compared to MDCK-VC cells [3]	Intracellular concentration in MDCK-OCT2-MATE1 cells vs MDCK-VC cells [4]	Transcellular basal to apical transport in MDCK-MATE1 cells vs MDCK-VC cells [3]	SMILES	Transcellular transport in Caco-2 cells with valspodar, of the respective control ([2]; 10 μM substrate, 240 minutes, valspodar 2 μM, without valspodar set to 100%) [%]	Vmax for MATE1-mediated uptake [5] [pmol*mg protein^-1*min^-1]	Km at 5 min [5] [µM]	Km [6] [µM]	Intracellular background in MDCK-MATE1 cells [3, 8]	Intracellular background in MDCK-OCT2-MATE1 cells [4, 8]
-	no significant effect	-	no significant difference	no significant difference		NCCc1ccc(O)cc1 [Tyramine, tyramine]						
-	no significant effect	-	no significant difference	significantly higher	considerably increased	NCCc1c[nH]c2ccc(O)cc12 [Serotonin, serotonin]		154.3 ± 7.3	52.7 ± 10.9	539		
-	no significant effect	-	significant reduction	no significant difference	not statistically significant	C[N+](C)(C)CCCCC(=O)[O-] [5-Amino valeric acid betaine, 5-amino valeric acid betaine]					no 5-amino valeric acid betaine could be detected	no 5-amino valeric acid betaine could be detected

SMILES	In Vitro OAT1 (substrate class) [1]	Effect of valspodar on basal to apical translocation in Caco-2 cells [2, 7]	In Vitro P-gp (substrate class) [2]	Intracellular accumulation in MDCK-MATE1 cells compared to MDCK-VC cells [3]	Intracellular concentration in MDCK-OCT2-MATE1 cells vs MDCK-VC cells [4]	Transcellular basal to apical transport in MDCK-MATE1 cells vs MDCK-VC cells [3]	Transcellular transport in Caco-2 cells with valspodar, of the respective control ([2]; 10 μM substrate, 240 minutes, valspodar 2 μM, without valspodar set to 100%) [%]	Vmax for MATE1-mediated uptake [5] [pmol*mg protein^-1*min^-1]	Km at 5 min [5] [µM]	Km [6] [µM]	Intracellular background in MDCK-MATE1 cells [3, 8]	Intracellular background in MDCK-OCT2-MATE1 cells [4, 8]
Cn1cnc(CCN)c1 [1-Methylhistamine, 1-methylhistamine]	-	significantly reduced	0 (significant uptake in HEK cells, but less than 300% of respective control cells or significant reduction of transcellular transport in Caco-2 cells, but reduction not below 50% of respective control without valspodar)	no significant difference	significantly higher		67	441.4 ± 50.5	307 ± 88.1			
